According to patent US20250073167A1, “A POLYMER TO INCREASE THE BIOAVAILABILITY OF A PHARMACEUTICAL COMPOUND” (CATALYA, priority 2022, published 2025):

Test: Oral delivery of fluorescein with 10 kDa polymer: bioavailability and recovery in blood, urine and feces
Assay type: in vivo, rat
Details: ingestion
Protocol: Eighteen rats have been selected and have been given either no polymer (rats 1, 2, 10, 11), or the polymer (10 kDa) at a dose of 5 mg/kg (rats 13-15), 50 mg/kg (rats 4-6, 12, 16-18) or 300 mg/kg (rats 3 and 7-9). Fluorescein has been either covalently coupled to the polymer (rats 4-9 and 13-18; labelled as PO or IV in the figures), or physically (non-covalently) adhered to the polymer (rats 3 and 12); labelled as PO* or IV* in the figures.
The polymer has been administered either per ingestion (PO or PO*) or by injection (IV or IV*). Blood concentration of the polymer-fluorescein (FIG. 1), or of the (potentially-free) fluorescein (FIG. 2) has been measured in the blood, in the feces (FIG. 4) and in urine (FIG. 3).

O=C1OC2(c3ccc(O)cc3Oc3cc(O)ccc32)c2ccccc21 [free fluorescein, fluorescein]
ingested fluorescein found in the feces (rats (FIG. 4)): > 99%
ingested fluorescein internalized (rats, without the polymer): less than 1%
